In patent US12077503B2, “Substituted cyclic amides and their use as herbicides” (FMC CORPORATION, priority 2015, dated 2024):

Columns and labels:
Assay type in all cases: in vivo
[1] = tested on: Kochia (Kochia scoparia); test: Test A preemergence; details: Bassia scoparia, pre-emergence, 240 h, 0 to 100 scale where 0 is no effect and 100 is complete control, read-out: Kochia plant response rating
How it was run: (§1)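 Preemergence directed soil spray on seeded pots, or postemergence application to plants 2–10 cm, one- to two-leaf. Solvent mixture non-phytotoxic, with surfactant. Scored ~10 d later, visually, 0–100 vs untreated.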

[2] = tested on: barnyardgrass (Echinochloa crus-galli); test: Test A preemergence; details: Echinochloa crus-galli, pre-emergence, 240 h, 0 to 100 scale where 0 is no effect and 100 is complete control, read-out: Barnyardgrass plant response rating
How it was run: as §1

[3] = tested on: giant foxtail (Setaria faberii); test: Test A preemergence; details: Setaria faberi, pre-emergence, 240 h, 0 to 100 scale where 0 is no effect and 100 is complete control, read-out: Foxtail, Giant plant response rating
How it was run: as §1

[4] = tested on: pigweed (Amaranthus retroflexus); test: Test A preemergence; details: Amaranthus retroflexus, pre-emergence, 240 h, 0 to 100 scale where 0 is no effect and 100 is complete control, read-out: Pigweed plant response rating
[5] = tested on: ragweed (common ragweed, Ambrosia elatior); test: Test A preemergence; details: Ambrosia artemisiifolia, pre-emergence, 240 h, 0 to 100 scale where 0 is no effect and 100 is complete control, read-out: Ragweed plant response rating
How it was run: as §1

[6] = tested on: ryegrass, Italian (Italian ryegrass, Lolium multiflorum); test: Test A preemergence; details: Lolium multiflorum, pre-emergence, 240 h, 0 to 100 scale where 0 is no effect and 100 is complete control, read-out: Ryegrass, Italian plant response rating
How it was run: as §1

[7] = tested on: Galium (catchweed bedstraw, Galium aparine); test: Test A postemergence; details: Galium, post-emergence, 240 h
How it was run: as §1

[8] = tested on: Kochia (Kochia scoparia); test: Test A postemergence; details: Bassia scoparia, post-emergence, 240 h
How it was run: as §1

[9] = tested on: barnyardgrass (Echinochloa crus-galli); test: Test A postemergence; details: Echinochloa crus-galli, post-emergence, 240 h
How it was run: as §1

[10] = tested on: blackgrass (Alopecurus myosuroides); test: Test A postemergence; details: Alopecurus myosuroides, post-emergence, 240 h
How it was run: as §1

[11] = tested on: corn (Zea mays); test: Test A postemergence; details: Zea mays, post-emergence, 240 h
How it was run: as §1

[12] = tested on: giant foxtail (Setaria faberii); test: Test A postemergence; details: Setaria faberi, post-emergence, 240 h
How it was run: as §1

[13] = tested on: pigweed (Amaranthus retroflexus); test: Test A postemergence; details: Amaranthus retroflexus, post-emergence, 240 h
How it was run: as §1

[14] = tested on: ragweed (common ragweed, Ambrosia elatior); test: Test A postemergence; details: Ambrosia artemisiifolia, post-emergence, 240 h
How it was run: as §1

[15] = tested on: ryegrass, Italian (Italian ryegrass, Lolium multiflorum); test: Test A postemergence; details: Lolium multiflorum, post-emergence, 240 h
How it was run: as §1

[16] = tested on: wheat (Triticum aestivum); test: Test A postemergence; details: Triticum aestivum, post-emergence, 240 h
How it was run: as §1

[17] = tested on: barnyardgrass (Echinochloa crus-galli); test: Test B flooded paddy test; details: Echinochloa crus-galli, 250 g ai/ha, Flood; 0 to 100 scale where 0 is no effect and 100 is complete control; read-out: Barnyardgrass plant response rating
How it was run: (§2)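 Greenhouse paddy pots with 2-leaf stage plants received compound by direct addition to floodwater 3 cm deep, kept at that level. Scored visually at 13–15 d versus controls (0 no effect; 100 complete control).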

[18] = tested on: ducksalad (Heteranthera limosa); test: Test B flooded paddy test; details: Heteranthera limosa, 250 g ai/ha, Flood; 0 to 100 scale where 0 is no effect and 100 is complete control; read-out: Ducksalad plant response rating
How it was run: as §2

[19] = tested on: rice (Oryra sativa); test: Test B flooded paddy test; details: Oryza sativa, 250 g ai/ha, Flood; 0 to 100 scale where 0 is no effect and 100 is complete control; read-out: Rice plant response rating
How it was run: as §2

[20] = tested on: sedge, umbrella (small-flower umbrella sedge, Cyperus difformis); test: Test B flooded paddy test; details: Cyperus difformis, 250 g ai/ha, Flood; 0 to 100 scale where 0 is no effect and 100 is complete control; read-out: Sedge, Umbrella plant response rating
How it was run: as §2

[21] = 125 g ai/ha, preemergence, approx. 10 d

Question: With `CN1C[C@H](c2ccc(C(F)(F)F)cn2)[C@@H](C(=O)Nc2ccc(F)c(F)c2F)C1=O` [Compound 1106] as the molecule, how does the pest or weed control at 31 g/ha ([1]; 31 g ai/ha, Preemergence) read?
Answer: 0%

Question: And the pest or weed control at 125 g/ha [1, 21]?
Answer: 60%

Question: What about the pest or weed control at 31 g/ha ([2]; 31 g ai/ha, Preemergence) of the same molecule?
Answer: 50%

Question: And the pest or weed control at 125 g/ha [2, 21]?
Answer: 90%

Question: And the pest or weed control at 31 g/ha ([3]; 31 g ai/ha, Preemergence)?
Answer: 60%

Question: And the pest or weed control at 125 g/ha [3, 21]?
Answer: 90%

Question: What about the pest or weed control at 31 g/ha ([4]; 31 g ai/ha, Preemergence) of the same molecule?
Answer: 0%

Question: What about the pest or weed control at 125 g/ha [4, 21] of the same molecule?
Answer: 20%

Question: And the pest or weed control at 31 g/ha ([5]; 31 g ai/ha, Preemergence)?
Answer: 0%

Question: What about the pest or weed control at 125 g/ha [5, 21] of the same molecule?
Answer: 30%

Question: And the pest or weed control at 31 g/ha ([6]; 31 g ai/ha, Preemergence)?
Answer: 0%

Question: What about the pest or weed control at 125 g/ha [6, 21] of the same molecule?
Answer: 0%

Question: What about the pest or weed control at 125 g/ha ([7]; 125 g ai/ha, postemergence, visual injury on 0 to 100 scale (0 no effect, 100 complete control), approx. 10 d, read-out: Galium plant response rating) of the same molecule?
Answer: 60%

Question: What about the pest or weed control at 31 g/ha ([7]; Postemergence, 31 g ai/ha, visual injury after approx. 10 d, 0 to 100 scale, 0 no effect, 100 complete control, read-out: Plant response rating, Galium) of the same molecule?
Answer: 40%

Question: What about the pest or weed control at 125 g/ha ([8]; 125 g ai/ha, postemergence, visual injury on 0 to 100 scale (0 no effect, 100 complete control), approx. 10 d, read-out: Kochia plant response rating) of the same molecule?
Answer: 60%

Question: What about the pest or weed control at 31 g/ha ([8]; Postemergence, 31 g ai/ha, visual injury after approx. 10 d, 0 to 100 scale, 0 no effect, 100 complete control, read-out: Plant response rating, Kochia) of the same molecule?
Answer: 0%

Question: And the pest or weed control at 125 g/ha ([9]; 125 g ai/ha, postemergence, visual injury on 0 to 100 scale (0 no effect, 100 complete control), approx. 10 d, read-out: Barnyardgrass plant response rating)?
Answer: 80%

Question: And the pest or weed control at 31 g/ha ([9]; Postemergence, 31 g ai/ha, visual injury after approx. 10 d, 0 to 100 scale, 0 no effect, 100 complete control, read-out: Plant response rating, Barnyardgrass)?
Answer: 30%

Question: What about the pest or weed control at 125 g/ha ([10]; 125 g ai/ha, postemergence, visual injury on 0 to 100 scale (0 no effect, 100 complete control), approx. 10 d, read-out: Blackgrass plant response rating) of the same molecule?
Answer: 0%

Question: What about the pest or weed control at 31 g/ha ([10]; Postemergence, 31 g ai/ha, visual injury after approx. 10 d, 0 to 100 scale, 0 no effect, 100 complete control, read-out: Plant response rating, Blackgrass) of the same molecule?
Answer: 0%

Question: And the plant injury at 125 g/ha ([11]; 125 g ai/ha, postemergence, visual injury on 0 to 100 scale (0 no effect, 100 complete control), approx. 10 d, read-out: Corn plant response rating)?
Answer: 0%

Question: What about the Corn plant response rating (crop injury, 0 = no effect, 100 = complete kill) at 31 g/ha ([11]; Postemergence, 31 g ai/ha, visual injury after approx. 10 d, 0 to 100 scale, 0 no effect, 100 complete control) of the same molecule?
Answer: 0%

Question: And the pest or weed control at 125 g/ha ([12]; 125 g ai/ha, postemergence, visual injury on 0 to 100 scale (0 no effect, 100 complete control), approx. 10 d, read-out: Foxtail, Giant plant response rating)?
Answer: 60%

Question: And the pest or weed control at 31 g/ha ([12]; Postemergence, 31 g ai/ha, visual injury after approx. 10 d, 0 to 100 scale, 0 no effect, 100 complete control, read-out: Plant response rating, Foxtail, Giant)?
Answer: 0%

Question: What about the pest or weed control at 125 g/ha ([13]; 125 g ai/ha, postemergence, visual injury on 0 to 100 scale (0 no effect, 100 complete control), approx. 10 d, read-out: Pigweed plant response rating) of the same molecule?
Answer: 20%

Question: What about the pest or weed control at 31 g/ha ([13]; Postemergence, 31 g ai/ha, visual injury after approx. 10 d, 0 to 100 scale, 0 no effect, 100 complete control, read-out: Plant response rating, Pigweed) of the same molecule?
Answer: 10%

Question: What about the pest or weed control at 125 g/ha ([14]; 125 g ai/ha, postemergence, visual injury on 0 to 100 scale (0 no effect, 100 complete control), approx. 10 d, read-out: Ragweed plant response rating) of the same molecule?
Answer: 0%

Question: What about the pest or weed control at 31 g/ha ([14]; Postemergence, 31 g ai/ha, visual injury after approx. 10 d, 0 to 100 scale, 0 no effect, 100 complete control, read-out: Plant response rating, Ragweed) of the same molecule?
Answer: 0%

Question: What about the pest or weed control at 125 g/ha ([15]; 125 g ai/ha, postemergence, visual injury on 0 to 100 scale (0 no effect, 100 complete control), approx. 10 d, read-out: Ryegrass, Italian plant response rating) of the same molecule?
Answer: 0%

Question: What about the pest or weed control at 31 g/ha ([15]; Postemergence, 31 g ai/ha, visual injury after approx. 10 d, 0 to 100 scale, 0 no effect, 100 complete control, read-out: Plant response rating, Ryegrass, Italian) of the same molecule?
Answer: 0%

Question: What about the plant injury at 125 g/ha ([16]; 125 g ai/ha, postemergence, visual injury on 0 to 100 scale (0 no effect, 100 complete control), approx. 10 d, read-out: Wheat plant response rating) of the same molecule?
Answer: 0%

Question: And the plant injury at 31 g/ha ([16]; Postemergence, 31 g ai/ha, visual injury after approx. 10 d, 0 to 100 scale, 0 no effect, 100 complete control, read-out: Plant response rating, Wheat)?
Answer: 0%

Question: And the pest or weed control at 250 g/ha [17]?
Answer: 70%

Question: And the pest or weed control at 250 g/ha [18]?
Answer: 100%

Question: And the pest or weed control at 250 g/ha [19]?
Answer: 40%

Question: And the pest or weed control at 250 g/ha [20]?
Answer: 0%
